Measurements: patent publication US6689806B1, “Indolinone compounds as kinase inhibitors” (Sugen, Inc., priority 1999, dated 2004)

Columns and labels:
EGFR = EGFR (Homo sapiens, UniProt P00533); experiment: Biochemical EGFR assay (ELISA); design: A431 cell lysate; endogenous in cells; host or cells: A431; details: Table 7, in vitro kinase activity, read-out: EGFr biochem IC50
How it was run: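 EGFR is captured from cell lysate onto SUMO1-coated plates and incubated with compound diluted in TBS. The kinase reaction is stopped after 5 min with EDTA. Substrate phosphotyrosine is detected with anti-phosphotyrosine and peroxidase-linked secondary antibody, then ABTS/H2O2 read at 410 nm (reference 630 nm).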

PDGFR [1] = target: T1, PDGFR (Homo sapiens, UniProt P09619); experiment: Biochemical PDGFR assay (ELISA); design: expressed in transfected cells; host or cells: NIH 3T3; details: Table 7, in vitro kinase activity, read-out: PDGFr biochem IC50
How it was run: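 PDGFR-β from NIH 3T3 cell lysate captured on 28D4C10-coated plates; compound preincubated 30 min, then 20 μM ATP for 30 min at room temperature and stopped with EDTA. Phosphotyrosine detected by anti-phosphotyrosine ELISA with peroxidase secondary and ABTS, read at 410 nm.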

A431 = A431 growth; type: cell-based; details: Homo sapiens, A-431; Table 7; A431 cells
PDGFR [2] = target: T1, PDGFR; experiment: PDGF-induced BrdU incorporation assay; type: cell-based; design: expressed in transfected cells; host or cells: 3T3; details: Table 7; 3T3 cells expressing human PDGF-R, PDGF 3.8 nM; read-out: BrdU DNA syn. PDGFr IC50
Experimental: The cellular/biologic assays described herein measure the amount of DNA made in response to activation of a test kinase, which is a general measure of a proliferative response. The general procedure for this assay is as follows: a compound is introduced to cells expressing the test kinase, either naturally or recombinantly, for some period of time after which, if the test kinase is a receptor, a ligand known to activate the receptor is added. After incubation at least overnight, a DNA labeling reagent such as Bromodeoxy-uridine (BrdU) or 3H-thymidine is added. The amount of labeled DNA is detected with either an anti-BrdU antibody or by measuring radioactivity and is compared to control cells not contacted with a test compound.
PDGF-Induced BrdU Incorporation Assay
(8) 3T3 cell line genetically engineered to express human PDGF-R.
(1) Cells are seeded at 8000 cells/well in DMEM, 10% CS, 2 mM Gln in a 96 well plate. Cells are incubated overnight at 37° C. in 5% CO2.
(2) After 24 hours, the cells are washed with PBS, and then are serum starved in serum free medium (0% CS DMEM with 0.1% BSA) for 24 hours.
(3) On day 3, ligand (PDGF, 3.8 nM, prepared in DMEM with 0.1% BSA) and test compounds are added to the cells simultaneously. The negative control wells receive serum free DMEM with 0.1% BSA only; the positive control cells receive the ligand (PDGF) but no test compound. Test compounds are prepared in serum free DMEM with ligand in a 96 well plate, and serially diluted for 7 test concentrations.
(4) After 20 hours of ligand activation, diluted BrdU labeling reagent (1: 100 in DMEM, 0.1% BSA) is added and the cells are incubated with BrdU (final concentration=10 μM) for 1.5 hours.
(10) The absorbance of the samples are measured at 410 nm (in “dual wavelength” mode with a filter reading at 490 nm, as a reference wavelength) on a Dynatech ELISA plate reader.

SKOV3 = SKOV3 growth; type: cell-based; details: Homo sapiens, SK-OV-3; Table 7; SKOV3 cells

EGFR, sequence (P00533 25-1210): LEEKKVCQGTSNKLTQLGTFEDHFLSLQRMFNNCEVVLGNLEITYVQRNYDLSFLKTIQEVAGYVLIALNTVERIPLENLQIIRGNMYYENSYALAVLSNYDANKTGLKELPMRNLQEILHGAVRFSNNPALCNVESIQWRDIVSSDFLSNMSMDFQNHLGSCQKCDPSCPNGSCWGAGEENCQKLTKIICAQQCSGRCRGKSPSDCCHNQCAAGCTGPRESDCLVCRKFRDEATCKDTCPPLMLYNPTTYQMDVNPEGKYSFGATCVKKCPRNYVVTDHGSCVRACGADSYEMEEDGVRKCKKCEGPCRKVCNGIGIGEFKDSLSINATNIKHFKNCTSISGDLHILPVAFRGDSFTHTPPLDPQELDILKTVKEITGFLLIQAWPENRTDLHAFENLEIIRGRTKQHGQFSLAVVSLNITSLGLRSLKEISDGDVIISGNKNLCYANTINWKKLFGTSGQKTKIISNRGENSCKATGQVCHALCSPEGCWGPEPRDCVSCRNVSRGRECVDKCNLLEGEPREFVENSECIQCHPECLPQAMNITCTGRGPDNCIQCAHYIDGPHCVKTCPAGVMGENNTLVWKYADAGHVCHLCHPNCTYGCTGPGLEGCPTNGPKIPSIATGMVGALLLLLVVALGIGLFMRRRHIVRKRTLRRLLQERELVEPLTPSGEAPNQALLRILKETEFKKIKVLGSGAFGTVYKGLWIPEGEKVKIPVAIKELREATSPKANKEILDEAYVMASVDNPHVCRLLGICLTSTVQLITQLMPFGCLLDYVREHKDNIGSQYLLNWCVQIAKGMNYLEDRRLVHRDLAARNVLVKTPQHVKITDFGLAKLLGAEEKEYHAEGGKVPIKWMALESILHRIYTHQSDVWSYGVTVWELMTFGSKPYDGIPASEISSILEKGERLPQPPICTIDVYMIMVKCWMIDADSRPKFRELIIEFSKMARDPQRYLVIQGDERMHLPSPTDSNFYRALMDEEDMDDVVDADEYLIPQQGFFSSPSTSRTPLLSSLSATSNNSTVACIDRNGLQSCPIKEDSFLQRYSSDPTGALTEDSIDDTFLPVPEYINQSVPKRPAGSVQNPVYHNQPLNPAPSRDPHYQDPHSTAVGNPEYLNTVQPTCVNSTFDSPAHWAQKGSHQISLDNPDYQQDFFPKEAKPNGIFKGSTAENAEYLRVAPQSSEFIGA
T1 sequence (P09619 33-1106): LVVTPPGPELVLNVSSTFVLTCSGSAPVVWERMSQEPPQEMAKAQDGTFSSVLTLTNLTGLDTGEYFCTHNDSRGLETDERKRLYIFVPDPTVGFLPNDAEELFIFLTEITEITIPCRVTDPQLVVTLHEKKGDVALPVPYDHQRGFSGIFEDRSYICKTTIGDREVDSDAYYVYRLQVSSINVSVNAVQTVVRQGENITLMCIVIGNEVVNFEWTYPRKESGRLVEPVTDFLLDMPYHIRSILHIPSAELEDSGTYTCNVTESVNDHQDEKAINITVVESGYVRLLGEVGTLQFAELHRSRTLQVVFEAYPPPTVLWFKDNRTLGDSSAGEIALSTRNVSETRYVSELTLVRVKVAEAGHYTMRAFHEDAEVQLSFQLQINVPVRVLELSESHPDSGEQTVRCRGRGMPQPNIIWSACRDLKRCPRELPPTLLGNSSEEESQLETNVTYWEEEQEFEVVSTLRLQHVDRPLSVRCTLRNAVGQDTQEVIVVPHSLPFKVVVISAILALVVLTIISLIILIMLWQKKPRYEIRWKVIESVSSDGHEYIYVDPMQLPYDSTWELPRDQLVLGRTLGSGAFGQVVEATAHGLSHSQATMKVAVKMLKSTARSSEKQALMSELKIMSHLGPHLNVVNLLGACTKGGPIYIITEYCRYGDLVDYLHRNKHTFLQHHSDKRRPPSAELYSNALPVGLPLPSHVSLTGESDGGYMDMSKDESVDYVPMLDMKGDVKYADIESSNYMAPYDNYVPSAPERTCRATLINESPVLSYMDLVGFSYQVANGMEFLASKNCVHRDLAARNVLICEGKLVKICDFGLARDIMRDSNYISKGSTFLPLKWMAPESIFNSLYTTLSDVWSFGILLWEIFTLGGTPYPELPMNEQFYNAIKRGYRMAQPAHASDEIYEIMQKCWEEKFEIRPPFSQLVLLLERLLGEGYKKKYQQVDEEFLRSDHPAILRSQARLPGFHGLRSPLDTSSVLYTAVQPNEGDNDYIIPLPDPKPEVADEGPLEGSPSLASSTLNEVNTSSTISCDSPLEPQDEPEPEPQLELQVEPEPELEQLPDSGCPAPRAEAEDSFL

| SMILES | IC50 (EGFR) | IC50 (PDGFR [1]) | IC50 (A431) | IC50 (PDGFR [2]) | IC50 (SKOV3) |
| --- | --- | --- | --- | --- | --- |
| O=C1Cc2c(CCOc3cccc(-c4ccccc4)c3)cccc2N1 [IN-003, 4-[2-(Biphenyl-3-yloxy)-ethyl]-1,3-dihydro-indol-2-one] | > 100 µM | 20.2 µM | 8.7 µM | 22 µM | 17.8 µM |
| O=C1Nc2cccc(CCO)c2/C1=C\c1ccc(Br)cc1 [IN-004, 3-(4-Bromo-benzylidene)-4-(2-hydroxy-ethyl)-1,3-dihydro-indol-2-one] | > 100 µM | > 100 µM | 1.1 µM | 3.3 µM | 2.9 µM |
| Cc1cccc(/C=C2\C(=O)Nc3cccc(CCO)c32)n1 [IN-006] | > 100 µM | > 100 µM | 6 µM | 4.6 µM | 5 µM |
| COc1ccc(/C=C2\C(=O)Nc3cccc(CCO)c32)cc1-c1cccs1 [IN-008, 4-(2-Hydroxy-ethyl)-3-(4-methoxy-3-thiophen-2-yl-benzylidene)-1,3-dihydro-indol-2-one] | > 100 µM | > 100 µM | 2.5 µM | 5.5 µM | 1.5 µM |
